# Measured values: publication PMC12040169 (PLOS Biology, 2025)
# Assay: in vitro
# Settings: human, hela cells, % viability
row,SMILES,"viability at 28.5 h, 10 µM"
1,Cc1nc(SCCO)c2c(=O)n(C)c(=O)n(CC(C)C)c2n1 [CBK306114],85.8%
2,CCOc1ccc(CN2CCN(CC(=O)Nc3cc(C)on3)CC2)cc1 [CBK306116],115%
3,Cc1cccc(NCC2CCN(CC(=O)Nc3cc(C)on3)C2)n1 (centres unmarked) [CBK306118],90.4%
4,Cc1ccnc(NCC2CCN(CC(=O)Nc3cc(C)no3)C2)c1 (centres unmarked) [CBK306121],91.3%
5,Cc1cccn2cc(CC(=O)NCCNC(=O)OC(C)(C)C)nc12 [CBK306122],100%
6,O=C(CCc1ccccc1F)NC1CCc2nccn2C1 (centres unmarked) [CBK306124],113%
7,CNC(=O)NC(=O)CN1CCC(CNc2ncccc2C#N)C1 (centres unmarked) [CBK306126],77.4%
8,COC(=O)c1ccc(N2CCN(Cc3nnnn3C3CC3)C(C)C2)cc1 (centres unmarked) [CBK306129],89.6%
9,Cc1ccc(-c2nn(CCC#N)cc2C(=O)N2CCCCC2)cc1C [CBK306131],94.4%
10,CCOC(=O)c1cnn2c(O)cc(CN(CC(C)(C)O)C(C)C)nc12 [CBK306133],93.6%
11,CC(NC(=O)CCc1cnn(C)c1)c1cccc(-n2ccnc2)c1 (centres unmarked) [CBK306139],97.3%
12,CC(=O)c1ccc(C)cc1OC(=O)C1CCCN(S(C)(=O)=O)C1 (centres unmarked) [CBK306140],115%
13,O=C(CN1CCCCC1Cn1cccn1)NCc1ccccn1 (centres unmarked) [CBK306146],84%
14,COc1ccc(CCNC(=O)CN2CCCC2Cn2cccn2)cc1 (centres unmarked) [CBK306147],92.1%
15,CCOC(=O)c1sc2nc(C(C)N(C)Cc3ccco3)[nH]c(=O)c2c1C (centres unmarked) [CBK306148],106%
16,CCOC(=O)C1CCCN(C(=O)Cn2c(C)nc3ccccc3c2=O)C1 (centres unmarked) [CBK306150],77.9%
17,Cc1csc(N2CCN(CC(O)COCc3ccco3)CC2)n1 (centres unmarked) [CBK306151],98.5%
18,Cc1ccccc1Nc1nc(N)nc(CN2CCCC2)n1 [CBK306152],102%
19,CCn1cc(CN2CCCN(C(=O)c3cc(Cl)c[nH]3)CC2)cn1 [CBK306153],90.6%
20,CCc1noc(CN2CCN(c3ccc(C(=O)OC)cc3)CC2C)n1 (centres unmarked) [CBK306154],86.4%
21,Cc1ccnc2nc(C(=O)OC(C)C(=O)N3CCCCCC3)nn12 (centres unmarked) [CBK306155],102%
22,CN(C)C(=O)NCCNC(=O)c1c[nH]nc1-c1cc2ccccc2o1 [CBK306157],85.7%
23,CCNS(=O)(=O)c1ccc2c(c1)N(Cc1ccc(CO)o1)CC2 [CBK306158],83.8%

row,SMILES,"viability at 28.5 h, 10 µM"
1,O=C(NCC1(O)CCSC1)c1c[nH]nc1-c1cc2ccccc2o1 (centres unmarked) [CBK306159],88.3%
2,CC(CN(C)C(=O)c1c[nH]nn1)Oc1ccc(Cl)c(Cl)c1 (centres unmarked) [CBK306160],87.5%
3,CC(=O)Nc1cccc(-n2nnnc2SCCCCCF)c1 [CBK306164],110%
4,Cc1ccc(-c2nnc(NCc3cnn(C)c3C)o2)c(C)c1 [CBK306166],88.2%
5,CC(c1ncc(Br)cn1)N1CCN(Cc2noc(C(C)(C)C)n2)CC1 (centres unmarked) [CBK306168],87.4%
6,Cc1n[nH]nc1C(=O)N(C)CC(C)Oc1ccc(Cl)c(Cl)c1 (centres unmarked) [CBK306173],85.2%
7,Cc1ccc2c(c1)nc(CNC(=O)NCCCO)n2C [CBK306174],86.1%
8,CC1(C)CCCN(Cc2nnnn2-c2ccc(S(C)(=O)=O)cc2)CC1 [CBK306177],81.8%
9,CC1(C)CCN(Cc2nnnn2-c2ccc(S(C)(=O)=O)cc2)C1 [CBK306179],94.7%
10,CN(C)c1ncccc1OC1CCN(c2ccnc(C3CC3)n2)C1 (centres unmarked) [CBK306182],56.3%
11,CCNS(=O)(=O)c1ccc2c(c1)N(Cc1nc(-c3ccco3)no1)CC2 [CBK306184],81.1%
12,O=C(Cc1cn2ccsc2n1)Nc1ccc(N2CCCCC2)cc1 [CBK306185],79%
13,O=C(Nc1cc(Cl)ccc1C(=O)NC1CCC(O)CC1)c1cccs1 (centres unmarked) [CBK306186],89.2%
14,Cc1ccc2[nH]c(SC(C)C(=O)N3CCOCC3)nc2c1 (centres unmarked) [CBK306187],96%
15,CCOC(=O)Cc1csc(SCC(=O)N2CCc3ccccc32)n1 [CBK306190],88.8%
16,N#CCCn1cc(C(=O)N2CCCCC2)c(-c2ccc(F)cc2)n1 [CBK306191],91.8%
17,N#Cc1ccsc1NC(=O)CN1CCN(c2cccc(Cl)c2)CC1 [CBK306192],81.1%
18,CC1CCC2(CC1)NC(=O)N(Cc1coc(-c3ccccc3)n1)C2=O (centres unmarked) [CBK306196],98.3%
19,CCN(CC(=O)Nc1c(F)cccc1F)S(=O)(=O)c1cccc(C#N)c1 [CBK306197],85.4%
20,CCOC(=O)C1CCCN(Cc2nc3cc(Cl)ccc3c(=O)[nH]2)C1 (centres unmarked) [CBK306198],86.9%
21,CC(C)n1c(CN2CCOCC2)nc2c1c(=O)n(C)c(=O)n2C [CBK306201],83.7%
22,N#CCCn1cc(C(=O)N2CCOCC2)c(-c2cc3ccccc3o2)n1 [CBK306203],104%
23,N#CCCn1cc(C(=O)N2CCOCC2)c(-c2ccccc2)n1 [CBK306207],86%

row,SMILES,"viability at 28.5 h, 10 µM"
1,N#CCCn1cc(C(=O)N2CCCCC2)c(-c2cccc(Cl)c2)n1 [CBK306209],80%
2,CCN(C(C)=O)c1nc(CN2CCOC(c3ccc(F)cc3)C2)cs1 (centres unmarked) [CBK306213],94.3%
3,COCc1cccc(Nc2ncnc3c2cnn3CCO)c1 [CBK306214],93.2%
4,CCCCN(CC(F)(F)F)C(=O)Cc1csc(NC(=O)C(C)C)n1 [CBK306217],99.5%
5,Cc1nc(C)n(CC2CCCN(Cc3nc4c(F)cccc4[nH]3)C2)n1 (centres unmarked) [CBK306218],110%
6,CC(C)c1nc(CN2CCN(c3ccc4nncn4n3)CC2)cs1 [CBK306219],102%
7,CCn1c(CN2CC(n3nc(C)cc3C)C2)nc2c(F)cccc21 [CBK306220],82%
8,O=C1NC2(CCSC2)C(=O)N1Cc1noc(-c2cccs2)n1 (centres unmarked) [CBK306225],90.6%
9,Cc1cc(C(=O)Nc2cc(F)c(N3CCCC3)c(F)c2)c(C)n1C1CC1 [CBK306226],102%
10,CN1CCC(NC(=O)c2cccc(NC(=O)C3CCCCC3)c2)C1=O (centres unmarked) [CBK306228],81.3%
11,CN(C)c1ccc(Nc2ncnc3c2cnn3CCC#N)cn1 [CBK306231],103%
12,CC(=O)N(C)Cc1cccc(Nc2ncnc3c2cnn3CCC#N)c1 [CBK306232],88.5%
13,Cc1cc(C)n(CC(=O)N2CCC(Nc3cccnn3)CC2)n1 [CBK306234],106%
14,Cc1cc(NC(=O)N2CCCN(CC3CCCCC3)CC2)no1 [CBK306239],99.9%
15,N#Cc1ccc(NCC(=O)Nc2ccn(Cc3ccncc3)n2)cc1 [CBK306241],89.7%
16,CC(NC(=O)CCc1cccnc1)c1nc(-c2ccncc2)cs1 (centres unmarked) [CBK306243],90.8%
17,CCOCC(=O)N(C)C1CCN(c2ncnc3ccccc23)CC1 [CBK306247],89.1%
18,CC(C)NC(=O)N1CCN(Cc2nc(-c3ccoc3)no2)CC1 [CBK306248],88.2%
19,O=C(Nc1cc(N2CCCS2(=O)=O)ccc1Cl)c1cc[nH]n1 [CBK306249],83.1%
20,CCOC(=O)N1CCN(C(=O)Nc2ccc3oc(=O)n(C)c3c2)CC1 [CBK306250],109%
21,CCCc1nc(-c2ccc3c(c2)CCCN3S(C)(=O)=O)cs1 [CBK306253],93%
22,CC1CCN(C(=O)COC(=O)c2cnc(-c3ccncc3)s2)CC1 [CBK306255],94.6%
23,Brc1ccc(C2(c3nnc(C4CCCO4)o3)CCOCC2)cc1 (centres unmarked) [CBK306258],117%

row,SMILES,"viability at 28.5 h, 10 µM"
1,CCC(NS(=O)(=O)c1cnc2c(c1)c(C)nn2C)C(O)C(F)(F)F (centres unmarked) [CBK306264],86.5%
2,COc1ccc(Br)c(C(CO)N(C)C(=O)Cc2cnccc2C)c1 (centres unmarked) [CBK306267],96.4%
3,O=C(NC1CCN(CC(F)(F)F)C1=O)c1ccnc(C2CC2)n1 (centres unmarked) [CBK306268],97%
4,Cn1nc(CN2CCNC(=O)C2c2ccccc2C(F)(F)F)[nH]c1=O (centres unmarked) [CBK306269],91.3%
5,COc1ccnc(N2CCN(C(=O)c3cc(C(C)=O)cn3C)CC2)n1 [CBK306272],91.2%
6,Cc1sc2nc(C(C)N(C)Cc3cc[nH]n3)[nH]c(=O)c2c1C (centres unmarked) [CBK306275],99.3%
7,Cc1cc(C)nc(NCc2cnn(C)c2C)n1 [CBK306276],88.1%
8,CCOC(=O)C1CCN(C(=O)Nc2cc(C)on2)CC1 [CBK306280],88.5%
9,CC(C)(C)OC(=O)N1CCN(Cc2ncc(-c3ccccc3)o2)CC1 [CBK306281],99.3%
10,Cn1nccc1CNCc1c(Br)cc(F)c(F)c1N1CCCCC1 [CBK306284],92.8%
11,COCC1CN(C(=O)Nc2ncc(Cc3ccc(C)c(Cl)c3)s2)CCO1 (centres unmarked) [CBK306286],84%
12,CC(C)N(CC(N)=O)Cc1nc(-c2cccc(C(F)(F)F)c2)no1 [CBK306287],89.8%
13,CC(c1cccs1)N(C)C(=O)NC1CCCc2c1cnn2CCO (centres unmarked) [CBK306289],113%
14,CC(=O)N1CC(C(=O)N2CC3(CCCC3)c3c(F)cccc32)C1 [CBK306292],97.6%
15,O=C(NCc1cccs1)N1CCCN(Cc2ccc(F)cc2)CC1 [CBK306294],97.4%
16,Cc1ccn(-c2ccc(N3CCC(OC4CCOCC4)CC3)nn2)n1 [CBK306296],87%
17,COCc1nc(C(=O)Nc2ccc(NC(C)=O)cc2C(F)(F)F)cs1 [CBK306298],107%
18,NC(=O)NC(CC(=O)N1CCOC2CCCCC21)c1cccc(Br)c1 (centres unmarked) [CBK306299],93.8%
19,Cc1ccn(-c2ccc(N3CCC(OC4CCCC4)CC3)nn2)n1 [CBK306301],96%
20,Cc1sc(NC(=O)CN(Cc2cnn(C)c2)C(C)C)c(C#N)c1C [CBK306303],93.1%
21,CCCN1CCCN(c2ccc(-n3ccc(C)n3)nn2)CC1 [CBK306304],107%
22,Cc1nc(S(=O)(=O)N2CCC3(CCCCC3)C2)cn1C [CBK306306],100%
23,Cc1nn(C)c(C)c1CC(=O)NC1CCN(c2c(F)cccc2F)C1 (centres unmarked) [CBK306307],83.2%
